Source: ChEMBL document CHEMBL4196117, “PK/PD Disconnect Observed with a Reversible Endothelial Lipase Inhibitor” (ACS Med Chem Lett, 2018)

How the values were obtained:
[1] = molecular target: T1, Endothelial lipase (Homo sapiens, UniProt Q9Y5X9); experiment: Inhibition of endothelial lipase in human HT1080 cells using PED-A1 containing DMPG vesicles as substrate pretreated for 20 mins followed by substrate addition and measured every 20 secs for 10 mins by fluorescence assay; format: cell-based
T1 sequence (Q9Y5X9 whole entry): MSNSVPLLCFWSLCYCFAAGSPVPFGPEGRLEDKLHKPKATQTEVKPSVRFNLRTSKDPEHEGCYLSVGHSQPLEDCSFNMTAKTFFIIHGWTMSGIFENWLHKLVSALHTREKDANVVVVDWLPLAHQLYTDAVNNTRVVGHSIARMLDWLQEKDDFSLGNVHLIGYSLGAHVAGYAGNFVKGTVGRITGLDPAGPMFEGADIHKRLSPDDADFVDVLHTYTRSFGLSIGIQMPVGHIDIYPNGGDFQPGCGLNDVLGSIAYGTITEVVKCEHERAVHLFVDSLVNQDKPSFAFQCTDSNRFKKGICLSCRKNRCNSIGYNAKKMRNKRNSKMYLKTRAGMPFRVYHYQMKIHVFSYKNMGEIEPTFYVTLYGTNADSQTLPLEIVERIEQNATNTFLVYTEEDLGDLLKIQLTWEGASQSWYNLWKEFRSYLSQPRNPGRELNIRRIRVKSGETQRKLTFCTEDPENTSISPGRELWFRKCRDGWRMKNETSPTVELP

[2] = Cmax in CD1 mouse at 1 mg/kg, iv administered as bolus dose; format: ADME, organism-based; design: dose 1 mg/kg, route intravenous; conditions: in vivo
[3] = Total AUC in CD1 mouse at 1 mg/kg, iv administered as bolus dose; format: ADME, organism-based; design: dose 1 mg/kg, time AUCmax, route intravenous; conditions: in vivo
[4] = Half life in CD1 mouse at 1 mg/kg, iv administered as bolus dose; format: ADME, organism-based; conditions: in vivo
[5] = Cmax in CD1 mouse at 1 mg/kg, po administered as bolus dose; format: ADME, organism-based; design: dose 1 mg/kg, route oral; conditions: in vivo
[6] = Total AUC in CD1 mouse at 1 mg/kg, po administered as bolus dose; format: ADME, organism-based; design: dose 1 mg/kg, route oral, time AUCmax; conditions: in vivo
[7] = Half life in CD1 mouse at 1 mg/kg, po administered as bolus dose; format: ADME, organism-based; conditions: in vivo
[8] = Oral bioavailability in CD1 mouse at 1 mg/kg administered as bolus dose; format: ADME, organism-based; conditions: in vivo
[9] = molecular target: T1, Endothelial lipase; experiment: Inhibition of endothelial lipase in human HT1080 cells using HDL as substrate pretreated for 10 mins followed by substrate addition and measured after 30 mins by LC/MS/MS analysis; format: cell-based
[10] = Tmax in CD1 mouse at 1 mg/kg, iv administered as bolus dose; format: ADME, organism-based; conditions: in vivo
[11] = Tmax in CD1 mouse at 1 mg/kg, po administered as bolus dose; format: ADME, organism-based; conditions: in vivo
[12] = Drug level in CD1 mouse at 1 mg/kg, po administered as bolus dose measured after 24 hrs; format: ADME, organism-based; conditions: in vivo, read-out: Drug uptake
[13] = system: Mus musculus; experiment: Free drug level in CD1 mouse at 1 mg/kg, po administered as bolus dose measured after 24 hrs; format: ADME, organism-based; conditions: in vivo
[14] = Protein binding in CD1 mouse plasma assessed as unbound fraction at 1 mg/kg, po administered as bolus dose; format: ADME, organism-based
[15] = system: Mus musculus; experiment: Ratio of total AUC in CD1 mouse at 10 mg/kg, po administered as bolus dose to total AUC in CD1 mouse at 1 mg/kg, po administered as bolus dose; format: ADME, organism-based; conditions: in vivo
[16] = system: Mus musculus; experiment: Ratio of total AUC in CD1 mouse at 50 mg/kg, po administered as bolus dose to total AUC in CD1 mouse at 1 mg/kg, po administered as bolus dose; format: ADME, organism-based; conditions: in vivo
[17] = Protein binding in CD1 mouse plasma at 1 mg/kg, po administered as bolus dose; format: ADME, organism-based; conditions: read-out: PPB (converted)
[18] = Cmax in C57BL/6J mouse at 50 mg/kg, po administered once daily for 5 days measured 6 hrs post last dose; format: ADME, organism-based; design: dose 50 mg/kg, route oral; conditions: in vivo
[19] = Cmin in C57BL/6J mouse at 50 mg/kg, po administered once daily for 5 days measured 24 hrs post last dose; format: ADME, organism-based; conditions: in vivo, read-out: Cmin
[20] = system: Mus musculus; experiment: fCmax in C57BL/6J mouse at 50 mg/kg, po administered once daily for 5 days measured 6 hrs post last dose; format: ADME, organism-based; conditions: in vivo
[21] = system: Mus musculus; experiment: fCmin in C57BL/6J mouse at 50 mg/kg, po administered once daily for 5 days measured 24 hrs post last dose; format: ADME, organism-based; conditions: in vivo
[22] = Ratio of fCmax in C57BL/6J mouse to IC50 for recombinant mouse endothelial lipase expressed in HEK293F cells using HDL as substrate; format: ADME, cell-based
[23] = Ratio of fCmin in C57BL/6J mouse to IC50 for recombinant mouse endothelial lipase expressed in HEK293F cells using HDL as substrate; format: ADME, cell-based
[24] = Protein binding in hamster plasma at 50 mg/kg, po qd for 7 days measured 6 hrs post dose on day 5; format: ADME, organism-based; conditions: cricetinae, read-out: PPB (converted)
[25] = system: Hamster; experiment: fCmax in hamster at 50 mg/kg, po qd for 7 days measured 6 hrs post dose on day 5; format: ADME, organism-based; conditions: cricetinae, in vivo
[26] = Ratio of fCmax in hamster to IC50 for recombinant mouse endothelial lipase expressed in HEK293F cells using HDL as substrate; format: ADME, cell-based

## CCN1CC(C(=O)NC(C)CCc2ccc(Cl)c(Cl)c2)=C(O)C1=O (stereo in doubt; 7c)
[1]
  IC50: 148 nM
[2]
  Cmax: 39 µM
[3]
  AUC: 304 µM·h
[4]
  half-life: 13 h
[5]
  Cmax: 15 µM
[6]
  AUC: 292 µM·h
[7]
  half-life: 13 h
[8]
  bioavailability: 96%
[9]
  IC50: 218 nM
[10]
  Tmax: 3 min
[11]
  Tmax: 0.5 h
[12]
  concentration at 24 h: 4.31 µM
[13]
  Drug uptake(free): 99 nM
[14]
  fraction unbound: 0.023
[15]
  Ratio AUC: 7.5
[16]
  Ratio AUC: 18
[17]
  fraction unbound: 0.023
[18]
  Cmax: 238 µM
[19]
  concentration at 24 h: 57 µM
[20]
  fCmax: 5.5 µM
[21]
  fCmin: 1.3 µM
[22]
  Ratio: 55
[23]
  Ratio: 13
[24]
  fraction unbound at 6 h: 0.016
[25]
  fCmax: 5.1 µM
[26]
  Ratio: 51
